Experimental data taken from patent US20230048512A1, “COCRYSTALS OF PTEROSTILBENE AND COMPOSITIONS COMPRISING THEM” (CENTER FOR INTELLIGENT RESEARCH IN CRYSTAL ENGINEERING, S.L., priority 2019, published 2023).
Several values for one entry are separate records, joined by “and”; a condition that tells them apart may be missing. Equal values may be shown once.

Experiments:
[1] = Dissolution rate of tablets of the solid forms in FaSSIF v2 (small-scale dissolution assay, UV quantification, Noyes-Whitney fit); format: physicochemical; settings: FaSSIF v2 (pH 6.5), 25° C., 120 minutes, 3 mm tablet
Method: 1. Molar Extinction Coefficient (MEC) determination in FaSSIF v2 medium
Molar extinction coefficients of pterostilbene and of each coformer were determined by UV-metric titration using a GlpKaTM titrator (Sirius Analytical Instruments, UK). Briefly, a 10 mM stock solution of sample was prepared in DMSO. […] of sample stock solution and 0.25 mL of a 15 mM potassium phosphate buffer were added to 10 mL of a 0.15 M KCI solution, which in turn contained 17.9 mg of FaSSIF v2 powder. The pH of the sample solution was adjusted to 2 with 0.5 M HCI before starting the titration, and then the titration was done using 0.5 M KOH up to pH 12. The UV absorption spectra (between 250 and 450 nm) of the solution were recorded at each titrant addition by a fiber optic dip-probe. The collected data were refined through the RefinamentPro software, and the pKa values and Molar Extinction Coefficients obtained by Target Factor Analysis.
2. Dissolution Rate experiments • Tablet production: tablets of 3 mm diameter were prepared using a manual hydraulic tablet press (Applied Measurements Ltd, UK). The applied pressure was 100 Kg for 2 min. From 10 to 15 mg of each solid form, pterostilbene or cocrystal, were weighted. The total exposed surface area was 0.5 cm^2. • Medium: FaSSIF v2 (pH 6.5), with corresponding amount of phosphoric (28.4 mM) acid instead of maleic acid. • Dissolution tests were performed with a small-scale dissolution assay installed in a GlpKaTM titrator (Sirius Analytical Instruments, UK). • Dissolution time and temperature: 120 minutes and 25° C. • Procedure: 15 mL of FaSSIF v2 was added into the sample vial containing the tablet. Spectra collection started immediately after. Spectra were recorded every 30 seconds between 250 and 450 nm through a Sirius D-PAS spectrometer with a bifurcated optic fibre dip probe (Hellma Analytics). The medium was stirred at a constant rate.
The concentration of pterostilbene in solution at each time point is determined from the spectroscopic data by applying the Beer-Lambert law, using previously determined molar extinction coefficients of pure pterostilbene. Spectrum regions where signal is saturated (A>1.5) or presenting medium interferences were discarded. Then, the concentration data were converted into absolute sample quantities, and used to generate the graphs showing the sample quantity vs. time.
4. Determination of the dissolution rate
Dissolution rate is obtained through the fit of the first order Noyes-Whitney exponential equation to the data: […]
In this equation, [X]t is the weight in grams of compound in solution at the experiment time (min); S is the extrapolated solubility (g) of pterostilbene; kd is the rate constant for dissolution (min^−1); and to (min) is a term allowing for a temporal offset. Results are calculated using a refinement process in which S, kd and t0 are varied in order to minimize the root mean square deviation between the modelled concentrations and the measured concentrations. The dissolution rate (g min^−1) is given by the product kdS (T. Gravestock et al., 2011).

[2] = Pharmacokinetics of pterostilbene in rat plasma after single oral administration; format: in vivo, Male Sprague-Dawley rats; settings: for Plasma concentration of pterostilbene, Mean (arithmetic) / Plasma concentration of pterostilbene, individual animals 1-5: 20 mg/kg P56-VIII (13.5 mg/kg as pterostilbene) single oral
Method: In-life phase • Animals: Male Sprague-Dawley rats (weight: 417.9-458.6 g) • Administration: Oral (single dose) • Dose: 20 mg/kg P56 (pterostilbene, free base) 20 mg/kg P56-VIII (cocrystal of pterostilbene and picolinic acid; 13.5 mg/kg as pterostilbene free base) • Formulation: Suspension (0.5% carboxymethylceluulose, CMC) • Adm. volume: 10 ml/kg • Fed/fasted state: Fasted (at least 8 hours prior dosing) • Sampling: Six blood samples/animal (1, 2, 4, 6, 8 and 24 hours post-adm.) • Plasma samples: Plasma samples using K3-EDTA as anticoagulant.
Samples were immediately frozen at −80° C. until their analysis
Pharmacokinetic analysis was performed by non-compartmental pharmacokinetic analysis using Kinetica v5 software (Alfasoft Limited, Luton, UK). Descriptive statistics was performed using Microsoft Excel spreadsheet 2007 (Microsoft Inc, Redmond, US). Plasma bioanalysis was made by LC-MS/MS.
Concentration values below the lower limit of quantification (BLQ) were set to zero, whereas missing concentration values were not considered for statistical and pharmacokinetic evaluations. All computations used the nominal sampling times, nominal doses and concentrations levels were expressed as free base. The numerical data presented below were computer generated. Because of rounding, recalculation of derived values from individual data presented herein below could, in some instances, yield minor variation.
The area under the plasma concentration-time curve from 0 to t (AUC0-t) was determined by using the trapezoidal rule. […] The terminal half-life was determined according to the following rules: (a) time interval equal to at least 1.5 x t1/2, (b) regression analysis (straight line on the log-transformed scale) contained data from at least 3 different time points in the terminal phase and as many data points as possible (always including the last quantifiable concentration but excluding the Cmax), and (c) the coefficient of determination (r^2) was ≥0.85. If at least one of these three conditions was not fulfilled, the terminal half-life and the parameters depending on t1/2 were listed but flagged as not reliably calculated. If the percentage of extrapolated AUC was more than 20%, the individual AUCinf result were listed but flagged as not reliably calculated. Flagged parameters were not included in descriptive statistics and statistical testing procedures.

[3] = 20 mg/kg P56-VIII (13.5 mg as pterostilbene) single oral, fasted male SD rats
[4] = 20 mg/kg cocrystal (13.5 mg/kg as pterostilbene) vs 20 mg/kg P56, single oral, rats

COc1cc(/C=C/c2ccc(O)cc2)cc(OC)c1 [Pterostilbene (Form VI), Form VI of pterostilbene]
dissolution rate [1]: 7.4 ± 1.8 nmol/min

COc1cc(/C=C/c2ccc(O)cc2)cc(OC)c1.Cn1c(=O)c2c(ncn2C)n(C)c1=O [Pterostilbene:caffeine cocrystal, reference compound]
dissolution rate [1]: 45.4 ± 9.2 nmol/min

COc1cc(/C=C/c2ccc(O)cc2)cc(OC)c1.COc1cc(/C=C/c2ccc(O)cc2)cc(OC)c1.NCCN [Pterostilbene:ethylendiamine cocrystal, pterostilbene:ethylendiamine cocrystal (2:1)]
dissolution rate [1]: 176.1 ± 12.6 nmol/min

COc1cc(/C=C/c2ccc(O)cc2)cc(OC)c1.ClCCl.Cn1c(=O)c2[nH]cnc2n(C)c1=O [Pterostilbene:theophylline cocrystal, cocrystal solvate of pterostilbene:theophylline: dichloromethane (1:1:1)]
dissolution rate [1]: 33.5 ± 6.7 nmol/min

COc1cc(/C=C/c2ccc(O)cc2)cc(OC)c1.COc1cc(/C=C/c2ccc(O)cc2)cc(OC)c1.Cc1cnc(C)c(C)n1 [cocrystal of pterostilbene:2,3,5-trimethylpirazine (2:1)]
dissolution rate [1]: 52.0 ± 5.8 nmol/min

COc1cc(/C=C/c2ccc(O)cc2)cc(OC)c1.O=C(O)c1ccccn1 [cocrystal of pterostilbene:picolinic acid (1:1)]
dissolution rate [1]: 427.8 ± 29.5 nmol/min
AUC0-t, Mean [2, 3]: 4699 ng·h/mL
AUC0-t, individual animals 1-5 [2, 3]: 4384 ng·h/mL and 3776 ng·h/mL and 4059 ng·h/mL and 9824 ng·h/mL and 1452 ng·h/mL
AUCinf, Mean [2, 3]: 4772 ng·h/mL
AUCinf, individual animals 1-5 [2, 3]: 4422 ng·h/mL and 3805 ng·h/mL and 4178 ng·h/mL and 9855 ng·h/mL and 1602 ng·h/mL
Cmax, Mean [2, 3]: 567.8 ng/mL
Cmax, individual animals 1-5 [2, 3]: 695.2 ng/mL and 337.4 ng/mL and 513.3 ng/mL and 991.8 ng/mL and 301.1 ng/mL
t1/2 (terminal elimination half-life), Mean [2, 3]: 3.3 h
t1/2 (terminal elimination half-life), individual animals 1-5 [2, 3]: 3.7 h and 3.2 h and 5.1 h and 2.8 h and 1.9 h
tmax, Median [2, 3]: 2 h
tmax, individual animals 1-5 [2, 3]: 1 h and 6 h and 4 h and 2 h
Plasma concentration of pterostilbene, Mean (arithmetic) ([2]; fasted male SD rats, 1 h): 504.7 ng/mL
Plasma concentration of pterostilbene, individual animals 1-5 ([2]; fasted male SD rats, 1 h): 513.3 ng/mL and 980.0 ng/mL and 189.8 ng/mL and 695.2 ng/mL and 145.5 ng/mL
Plasma concentration of pterostilbene, Mean (arithmetic) ([2]; fasted male SD rats, 2 h): 514.3 ng/mL
Plasma concentration of pterostilbene, individual animals 1-5 ([2]; fasted male SD rats, 2 h): 462.8 ng/mL and 952.8 ng/mL and 301.1 ng/mL and 587.9 ng/mL and 266.9 ng/mL
Plasma concentration of pterostilbene, Mean (arithmetic) ([2]; fasted male SD rats, 4 h): 451.7 ng/mL
Plasma concentration of pterostilbene, individual animals 1-5 ([2]; fasted male SD rats, 4 h): 262.6 ng/mL and 991.8 ng/mL and 224.7 ng/mL and 538.5 ng/mL and 240.8 ng/mL
Plasma concentration of pterostilbene, Mean (arithmetic) ([2]; fasted male SD rats, 6 h): 305.6 ng/mL
Plasma concentration of pterostilbene, individual animals 1-5 ([2]; fasted male SD rats, 6 h): 150.6 ng/mL and 663.7 ng/mL and 153.8 ng/mL and 222.5 ng/mL and 337.4 ng/mL
Plasma concentration of pterostilbene, Mean (arithmetic) ([2]; fasted male SD rats, 8 h): 214.8 ng/mL
Plasma concentration of pterostilbene, individual animals 1-5 ([2]; fasted male SD rats, 8 h): 210.5 ng/mL and 449.2 ng/mL and 53.5 ng/mL and 136.4 ng/mL and 224.6 ng/mL
Plasma concentration of pterostilbene, Mean (arithmetic) ([2]; fasted male SD rats, 24 h): 7.54 ng/mL
Plasma concentration of pterostilbene, individual animals 1-5 ([2]; fasted male SD rats, 24 h, BLQ = <5 ng/ml): 16.4 ng/ml and 7.67 ng/ml and BLQ and 7.16 ng/ml and 6.50 ng/ml
increase in AUCinf compared to the P56 formulation [2, 4]: about 10 fold
increase in Cmax compared to the P56 formulation [2, 4]: around 6 fold

COc1cc(/C=C/c2ccc(O)cc2)cc(OC)c1.COc1cc(/C=C/c2ccc(O)cc2)cc(OC)c1.O=C(O)c1ccccn1 [cocrystal of pterostilbene:picolinic acid (2:1)]
dissolution rate [1]: 351.3 ± 18.9 nmol/min

COc1cc(C=Cc2ccc(O)cc2)cc(OC)c1.COc1cc(C=Cc2ccc(O)cc2)cc(OC)c1.NCCN.O.O [pterostilbene:ethylendiamine:H2O cocrystal hydrate (2:1:2)]
dissolution rate [1]: 230.4 ± 26.59 nmol/min
